From article PMC8222254, “Self-assembly of an anion receptor with metal-dependent kinase inhibition and potent in vitro anti-cancer properties” (Nature Communications, 2021)
pIC50: −log10 of the molar value. “And” between values parts separate entries of the source, which are not always exact repeats. Equal entries are not always repeated. Where two headings read alike, the source gives them in different places.

Columns and labels:
Experiment in all cases: Chemosensitivity, 96 h continuous exposure, MTT assay
Assay type in all cases: cell-based, human
[1] = system: ARPE-19 non-cancer cells
Source text: (§1) All cell lines were purchased from and maintained as monolayers as described by the American Type Culture Collection with the exception of the p53^+/+ and p53^−/− isogenic clones of HCT116 human colorectal adenocarcinoma cells which were a kind gift from Professor Bert Vogelstein[54]. GBM1 cells were established from a primary GBM tumour by Heiko Wurdak and colleagues[32],[33]. Non-cancerous adult brain neural progenitor (NP1) cells were derived from a patient undergoing surgery to treat epilepsy[32],[33]. Cell culture and growth media for NP1 and GBM1 cells were as described[32],[33]. The response of cells following a continuous 96-h exposure to test compounds and platinates was determined using the MTT assay. Potency was recorded as the IC50 and the selectivity index (SI) was defined as the ratio of IC50 values for non-cancer to cancer cell lines with values >1 representing selectivity for cancer cells as opposed to non-cancer cells.
(§2) All cell lines used were maintained at low passage in antibiotic-free media. HT29, DLD-1, HCT116 p53^+/+ and HCT116 p53^−/− are all colorectal adenocarcinoma cell lines derived from different individuals and harbour different combinations of oncogenic lesions (except for the HCT116 isogenic cancer cell clones that are genetically identical except for p53 status). PSN-1, BxPC-3 and MiaPaCa2 are pancreatic carcinoma cell lines and A549 and H460 are lung carcinoma cell lines. HT29, DLD-1, PSN-1, BxPC-3, A549 and H460 cell lines were cultured in RPMI-1640 growth media (Sigma) containing 2 mM L-glutamine, 1 mM sodium pyruvate and 10% foetal bovine serum (FBS). HCT116 (p53^+/+ and p53^−/−) and MiaPaCa2 cell lines were cultured in Dulbecco’s Modified Eagle’s Medium (Sigma), 2 mM L-glutamine and 10% FBS. The ARPE-19 retinal epithelial non-cancer cell line was cultured in DMEM/F12 media (Gibco), 2 mM L-glutamine, 1 mM sodium pyruvate and 10% FBS. The MCF10A non-cancerous human breast epithelial cell line was cultured in Minimal Essential Media Eagle (Sigma), 2 mM L-glutamine, 1 mM sodium pyruvate, 10% FBS and 1x non-essential amino acids (NEAA). NP1 and GBM1 cells were cultured on plasticware coated with poly-L-ornithine (5 µg/ml) and laminin (2.4 µg/ml)[32],[33]. NP1 cells were grown in DMEM/F12 media (Gibco) supplemented with 5% FBS, 20 ng/ml hFGF, 20 ng/ml rhEGF, 0.5x B-27 supplement (Gibco), 0.5x N-2 supplement (Gibco) and 1x GLUTAMAX (Gibco). GBM1 cells were cultured in Neurobasal media (Gibco) supplemented with 40 ng/ml hFGF, 40 ng/ml rhEGF, 0.5x B-27 supplement (Gibco) and 0.5x N-2 supplement (Gibco).
(§3) [L2(Metal)3]^6+ and all the other self-assembling complexes were freshly formed by adding DMSO to individual components and mixing together by pipetting. These were then further diluted in cell culture media such that the final DMSO concentration that cells were exposed to was 0.2% (vehicle control). Cisplatin, oxaliplatin and carboplatin were dissolved in phosphate buffered saline. Cell lines were seeded into 96 well plates at 2 × 10^3 cells per well and incubated overnight at 37 °C. GBM1 cancer stem-like cells were seeded at 3 × 10^3 cells per well and NP1 neural progenitors were seeded at 1.5 × 10^3 cells per well. The following day, media was removed and replaced with fresh media containing test compounds at a range of concentrations. Cells were incubated with test compounds for a further 96 h after which the media was removed and replaced with fresh media (200 μl/well). MTT was added (20 μl at 5 mg/ml) and cells were incubated for a further 4 h. Media and MTT were removed and formazan crystals were dissolved in 150 μl of DMSO and the absorbance of the resulting solution determined at 540 nm. Dose response curves were constructed, and the concentration required to reduce cell growth by 50% (IC50) determined.

[2] = system: MiaPaCa2; conditions: for pIC50: MiaPaCa2, 96 h, MTT; for SI (ARPE19): mean IC50 ARPE-19 / mean IC50 MiaPaCa2
Source text: as §1, §2, §3

[3] = system: HCT116 p53-/-; conditions: for SI (ARPE19): mean IC50 ARPE-19 / mean IC50 HCT116 p53-/-; for Selectivity index (ARPE19): IC50 ARPE-19 / IC50 HCT116 p53-/-
Source text: as §1, §2, §3

[4] = system: HCT116 p53+/+; conditions: for SI (ARPE19): mean IC50 ARPE-19 / mean IC50 HCT116 p53+/+; for Selectivity index (ARPE19): IC50 ARPE-19 / IC50 HCT116 p53+/+
Source text: as §1, §2, §3

[5] = ARPE-19, 96 h, MTT, individual run, read-out: IC50 values for each replicate
[6] = ARPE-19, 96 h, MTT, mean of at least 3 independent experiments, read-out: Mean IC50
[7] = individual run, read-out: IC50 values for each replicate
[8] = mean of at least 3 independent experiments, read-out: Mean IC50
[9] = HCT116 p53-/-, 96 h, MTT, individual run, read-out: IC50 values for each replicate
[10] = HCT116 p53-/-, 96 h, MTT, mean of at least 3 independent experiments, read-out: Mean IC50
[11] = HCT116 p53+/+, 96 h, MTT, individual run, read-out: IC50 values for each replicate
[12] = HCT116 p53+/+, 96 h, MTT, mean of at least 3 independent experiments, read-out: Mean IC50
[13] = ARPE19, individual replicate experiments, read-out: IC50 values
[14] = HCT116 p53-/-, individual replicate experiments, read-out: IC50 values
[15] = HCT116 p53+/+, individual replicate experiments, read-out: IC50 values
[16] = ARPE-19 non-cancer, read-out: Mean IC50 values
[17] = HCT116 p53-/-, read-out: Mean IC50 values
[18] = HCT116 p53+/+, read-out: Mean IC50 values

SMILES | pIC50 [1, 5] | pIC50 [1, 6] | pIC50 [2, 7] | pIC50 [2, 8] | SI (ARPE19) [2] | pIC50 [3, 9] | pIC50 [3, 10] | SI (ARPE19) [3] | pIC50 [4, 11] | pIC50 [4, 12] | SI (ARPE19) [4] | pIC50 [1, 13] | pIC50 [3, 14] | Selectivity index (ARPE19) [3] | pIC50 [4, 15] | Selectivity index (ARPE19) [4] | pIC50 [1, 16] | pIC50 [3, 17] | pIC50 [4, 18] | further results
O=C1[O][Pt]2([NH][C@@H]3CCCC[C@H]3[NH]2)[O]C1=O [Oxaliplatin, oxaliplatin, reference compound] | 5.55 and 5.51 and 5.47 | 5.51 | 5.28 and 5.15 | 5.19 | 0.484 | 5.26 and 5.61 and 5.51 | 5.44 | 0.850 | 5.98 and 6.05 and 6.08 | 6.03 | 3.355 |  |  |  |  |  |  |  |  | 
N.N.O=C([O-])C1(C(=O)[O-])CCC1.[Pt+2] [Carboplatin, carboplatin, reference compound] | 4.06 and 4.10 and 4.18 | 4.11 | 4.52 and 4.35 and 4.50 | 4.45 | 2.184 | 4.34 and 4.55 and 4.48 | 4.45 | 2.177 | 4.36 and 4.68 and 4.48 | 4.49 | 2.401 |  |  |  |  |  |  |  |  | 
c1ccc(-c2csc(NCCN(CCNc3nc(-c4ccccc4)cs3)CCNc3nc(-c4ccccc4)cs3)n2)cc1 [L] |  |  |  |  |  |  |  |  |  |  |  | 5.30 and 5.20 | 7.13 and 7.09 | 77.506 | 6.76 and 6.28 and 6.85 | 19.369 and 19.36 |  |  |  | pIC50 ([1]; Homo sapiens, ARPE-19, ARPE19, individual replicate experiments, read-out: IC50 values): 5.31; pIC50 ([1]; Homo sapiens, ARPE-19, ARPE-19 non-cancer, read-out: Mean IC50 values): 5.27; pIC50 ([3]; Homo sapiens, HCT-116, HCT116 p53-/-, individual replicate experiments, read-out: IC50 values): 7.27; pIC50 ([3]; Homo sapiens, HCT-116, HCT116 p53-/-, read-out: Mean IC50 values): 7.15; pIC50 ([4]; Homo sapiens, HCT-116, HCT116 p53+/+, read-out: Mean IC50 values): 6.55
[Zn+2].c1ccc(-c2csc(NCCN(CCNc3nc(-c4ccccn4)cs3)CCNc3nc(-c4ccccn4)cs3)n2)nc1 [[LZn]2+] |  |  |  |  |  |  |  |  |  |  |  | 5.27 and 5.32 and 5.29 | 7.27 and 7.20 and 7.06 | 74.47 | 6.32 and 6.26 and 6.61 | 11.94 | 5.29 | 7.17 | 6.37 | 
N.N.[Cl][Pt][Cl] [Cisplatin, cisplatin, reference compound] | 5.22 and 5.13 and 5.25 | 5.19 | 5.43 and 5.55 and 5.36 | 5.44 | 1.771 | 5.15 and 5.08 | 5.12 | 0.852 | 5.55 and 5.47 and 5.45 | 5.49 | 1.966 |  |  |  |  |  |  |  |  | 
[Cu+2].c1ccc(-c2csc(NCCN(CCNc3nc(-c4ccccn4)cs3)CCNc3nc(-c4ccccn4)cs3)n2)nc1 [[LCu]2+] |  |  |  |  |  |  |  |  |  |  |  | 5.23 and 5.26 and 5.20 | 7.31 and 7.35 and 7.08 | 100.09 | 6.29 and 6.23 and 6.60 | 13.19 | 5.23 | 7.23 | 6.35 | 
